Results published in US20090081192A1, “METHODS OF SCREENING FOR COMPOUNDS HAVING ANTI-INFLAMMATORY ACTIVITY” (FIBREX MEDICAL RESEARCH & DEVELOPMENT GMBH, priority 2007, published 2009).
Marks after values point to notes of the source that are not given here.

Key:
Type in all cases: cell-based, human
RhoA = assay: Thrombin induced RhoA activation pull-down assay in HUVEC; conditions: substance alone, thrombin 5 U/ml
Excerpt: (§1) The useful methods of analysing the activation status of Rac1 and RhoA are based on the principle of the so-called pull down assay. In this format, the GTP-bound active state of the respective protein in a cell lysate is bound to an immobilized binding partner and detected with a monoclonal antibody (MAb) specifically directed against the protein in question. The amount of the GTP-bound active state can subsequently be quantified through suitable detection methods, including but not limited to Western blotting or luminescence detection.
The lysate is added to a suitably immobilized rhotekin-binding domain (RBD) and the signal measured with an appropriate detection method.
HUVEC are grown to confluence under standard conditions. Before induction of Rho activity HUVEC were starved for 4 h by using IMDM (Gibco) without growth factor and serum supplements. After the starvation period 5 U/ml Thrombin (Calbiochem) or 5 U thrombin plus 50 μg/ml of test compound are added to the starvation medium for 1, 5 and 10 min. Active RhoA was isolated using Rho Assay Reagent from Upstate according to manufactures instructions. Isolates were separated on a 15% polyacrylamid gel and blotted on Nitrocellulose-Membrane (Bio-Rad). RhoA was detected by using Anti-Rho (-A, -B, -C), clone55 from Upstate (1:500).

Rac1 = Rac1 activation pull-down assay in HUVECs; conditions: HUVEC, substance alone, test compound 50 μg/ml
Excerpt: as §1
The lysate is added to a suitably immobilized p21-binding domain (PBD) of p21-activated protein kinase (PAK) and the amount of activated Rac1 is quantified with a Rac1-specific MAb.
HUVECs are grown to confluence under standard conditions. Before induction of Rac1 activity HUVECs were starved for 4 h by using IMDM (Gibco) without growth factor and serum supplements. Rac1 activity is induced by adding 50 μg/ml of test compound into starvation medium for 1, 5 and 10 min. Active Rac1 was isolated using Rac1/Cdc42 Assay Reagent from Upstate according to manufactures instructions. Isolates were separated on a 15% polyacrylamid gel and blotted on Nitrocellulose-Membranes (Bio-Rad). Rac1 was detected by using Anti-Rac1 clone23A8, anti-mouse from Upstate (1:250).

FAK = assay: Thrombin induced FAK phosphorylation at autophosphorylation site Tyr397 in HUVEC (immunoprecipitation / western blot); conditions: substance alone, compound 50 μg/ml, thrombin 1 U/ml
Description: For measuring the inhibition of thrombin meditated FAK phosphorylation in HUVECs, the cells are incubated under suitable conditions with a suitable amount of thrombin with and without the test compound for various periods of time up to 60 min and lysed afterwards lysates were subjected to SDS-PAGE and western blot analysis with site-specific antibodies directed against FAK phosphorylated tyrosine residues.
HUVEC were incubated with FX06 (50 μg/ml), Thrombin (1 U/ml, Sigma Aldrich) and Thrombin/test compound for indicated time points. After washing with ice cold PBS (GIBCO), cells were scrapped in Tris-lysis buffer (plus 1% Triton X (Bio-Rad), NP40 (Sigma Aldrich) and proteinase and phosphatase inhibitory cocktails (Sigma Aldrich)) from culture flasks and lysed for 20 min on ice. Lysates were heavily vortexed every 5 min. After lysis lysates were centrifuged (15.000 rpm/10 min/4° C.) and supernatants were added to 50 μl sepahrose beads (Sigma Aldrich) preincubated with 1 μg total FAK antibody (BD Transduction Laboratories). Beads were agitated on the wheel for 2 h at 4° C., followed by 3 times washing with ice cold PBS, the addition of 2× sample buffer and incubation at 95° C. for 5 min. The sample buffer was then removed from the beads and applied to western blotting.
10% polyacrylamide gels were run for separating precipitated proteins. Gels were blotted onto PVDF (Bio-Rad) membranes using the hoefer semi dry blotting system. Membranes were then washed with TBS/0.5% TWEEN (TBST), blocked with 1% BSA/TBST for 1 h at RT and then incubated with the p397 FAK antibody (0.2 μg/ml; BD Transduction Laboratories) in 1% BSA/TBST over night at 4° C. For detection, a HRP-labeled goat anti-mouse Ab (1:25 000; Bio-Rad) in TBST was used and bound Abs were visualized by chemiluminescence (ECL-system, Amersham Corp., Arlington Heights, Ill.) and recorded on film.

## thrombin
RhoA; 1 min
  Active RhoA, relative values compared to unstimulated control: 2.5 +/− 0.2*
RhoA; 5 min
  Active RhoA, relative values compared to unstimulated control: 2.5 +/− 0.2*
RhoA; 10 min
  Active RhoA, relative values compared to unstimulated control: 1 +/− 0.2
Rac1; 1 min
  Active Rac1, relative values compared to unstimulated control: 0.5 +/− 0.2*
Rac1; 5 min
  Active Rac1, relative values compared to unstimulated control: 0.5 +/− 0.2*
Rac1; 10 min
  Active Rac1, relative values compared to unstimulated control: 1 +/− 0.1
FAK; 1 min
  FAK phosphorylation (p397), relative values compared to unstimulated control: 4.5 +/− 0.2*
FAK; 5 min
  FAK phosphorylation (p397), relative values compared to unstimulated control: 4.5 +/− 0.2*
FAK; 10 min
  FAK phosphorylation (p397), relative values compared to unstimulated control: 3.8 +/− 0.1*
